Calls of active or inactive are those of the source. The rule behind the calls is not given here.
What was measured:
[1] = biological target: Cathepsin B (Rattus norvegicus) (UniProt P00787); assay: Inhibition of rat cathepsin B at 1 uM using cbz-phe-Arg-amidomethylcoumarin as substrate preincubated for 5 mins followed by substrate addition measured for 15 mins by fluorescence assay relative to control
[2] = biological target: Cathepsin S (Homo sapiens) (UniProt P25774); assay: Inhibition of recombinant human cathepsin S at 1 uM using cbz-val-val-arg-7-amino-4-methylcoumarin as substrate measured for 15 mins by fluorescence assay relative to control
[3] = biological target: Cathepsin B (Rattus norvegicus) (UniProt P00787); assay: Inhibition of rat cathepsin B at 1 uM using cbz-phe-Arg-amidomethylcoumarin as substrate measured for 15 mins by fluorescence assay relative to control
[4] = biological target: Cathepsin S (Homo sapiens) (UniProt P25774); assay: Inhibition of recombinant human cathepsin S at 1 uM using cbz-val-val-arg-7-amino-4-methylcoumarin as substrate preincubated for 5 mins followed by substrate addition measured for 15 mins by fluorescence assay relative to control
Trypanosoma cruzi [5] = assay: Antitrypanosomal activity against Trypanosoma cruzi Tulahuen trypomastigote forms infected in mouse L929 cells after 96 hrs by chlorophenol red-beta-D-galactopyranoside dye based assay; format: functional, cell-based; details: L929, 96 h
Trypanosoma brucei [6] = assay: Inhibition of recombinant Trypanosoma brucei rhodesain at 100 uM in AcOH/AcONA buffer using Z-phe-Arg-amidomethylcoumarin as substrate by fluorometric method relative to control
[7] = Selectivity index, ratio of CC50 for mouse L929 cells to IC50 for Trypanosoma cruzi Tulahuen trypomastigote forms infected in mouse L929 cells; format: toxicity, cell-based; details: read-out: Ratio CC50/IC50
[8] = Cytotoxicity against mouse L929 cells after 96 hrs by alamar blue assay; format: cell-based
[9] = biological target: Cruzipain (Trypanosoma cruzi) (UniProt P25779); assay: Inhibition of recombinant Trypanosoma cruzi cruzain at 100 uM in AcOH/AcONA buffer using Z-phe-Arg-amidomethylcoumarin as substrate by fluorometric method relative to control
[10] = Inhibition of recombinant Trypanosoma brucei rhodesain in AcOH/AcONA buffer using Z-phe-Arg-amidomethylcoumarin as substrate by fluorometric method
[11] = biological target: Cathepsin B (Rattus norvegicus) (UniProt P00787); assay: Inhibition of rat cathepsin B at 100 uM using cbz-phe-Arg-amidomethylcoumarin as substrate measured for 15 mins by fluorescence assay relative to control
[12] = biological target: Cruzipain (Trypanosoma cruzi) (UniProt P25779); assay: Inhibition of recombinant Trypanosoma cruzi cruzain at 100 uM using Z-phe-Arg-amidomethylcoumarin as substrate by fluorometric method relative to control
[13] = biological target: Cathepsin S (Homo sapiens) (UniProt P25774); assay: Inhibition of recombinant human cathepsin S at 100 uM using cbz-val-val-arg-7-amino-4-methylcoumarin as substrate preincubated for 5 mins followed by substrate addition measured for 15 mins by fluorescence assay relative to control
Cruzipain [14] = biological target: T1, Cruzipain (Trypanosoma cruzi, UniProt P25779); assay: Competitive inhibition of recombinant Trypanosoma cruzi cruzain in presence of varying levels of Z-phe-Arg-amidomethylcoumarin substrate by Lineweaver-Burk plot analysis
[15] = biological target: Cathepsin B (Rattus norvegicus) (UniProt P00787); assay: Inhibition of rat cathepsin B at 100 uM using cbz-phe-Arg-amidomethylcoumarin as substrate preincubated for 5 mins followed by substrate addition measured for 15 mins by fluorescence assay relative to control
[16] = biological target: Cathepsin S (Homo sapiens) (UniProt P25774); assay: Inhibition of recombinant human cathepsin S at 100 uM using cbz-val-val-arg-7-amino-4-methylcoumarin as substrate measured for 15 mins by fluorescence assay relative to control
Trypanosoma brucei [17] = assay: Inhibition of recombinant Trypanosoma brucei rhodesain at 100 uM using Z-phe-Arg-amidomethylcoumarin as substrate by fluorometric method relative to control
Cruzipain [18] = biological target: T1, Cruzipain; assay: Inhibition of recombinant Trypanosoma cruzi cruzain using Z-phe-Arg-amidomethylcoumarin as substrate by fluorometric method
[19] = Inhibition of recombinant Trypanosoma brucei rhodesain using Z-phe-Arg-amidomethylcoumarin as substrate by fluorometric method
Trypanosoma cruzi [20] = assay: Antitrypanosomal activity against Trypanosoma cruzi Tulahuen trypomastigote forms infected in mouse L929 cells up to 250 uM after 96 hrs by chlorophenol red-beta-D-galactopyranoside dye based assay; format: functional, cell-based

Cathepsin S (Homo sapiens), sequence (P25774 115-331 limits assumed): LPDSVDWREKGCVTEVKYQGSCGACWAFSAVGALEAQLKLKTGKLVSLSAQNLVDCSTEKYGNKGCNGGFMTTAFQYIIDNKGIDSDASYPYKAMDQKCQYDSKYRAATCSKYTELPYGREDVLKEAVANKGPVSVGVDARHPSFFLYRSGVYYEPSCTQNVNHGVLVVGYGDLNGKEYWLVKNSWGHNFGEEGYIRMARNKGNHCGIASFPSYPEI
Cruzipain (Trypanosoma cruzi), sequence (P25779 123-467 limits assumed): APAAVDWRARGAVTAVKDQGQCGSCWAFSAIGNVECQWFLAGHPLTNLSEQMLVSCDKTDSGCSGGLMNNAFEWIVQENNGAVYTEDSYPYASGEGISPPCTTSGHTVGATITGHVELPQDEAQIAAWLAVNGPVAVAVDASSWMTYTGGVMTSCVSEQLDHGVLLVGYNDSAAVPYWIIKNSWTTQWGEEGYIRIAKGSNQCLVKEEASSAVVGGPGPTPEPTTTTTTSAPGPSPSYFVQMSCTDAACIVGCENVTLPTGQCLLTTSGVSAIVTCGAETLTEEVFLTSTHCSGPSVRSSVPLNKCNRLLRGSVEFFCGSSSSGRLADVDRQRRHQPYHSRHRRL
T1 sequence (P25779 whole entry): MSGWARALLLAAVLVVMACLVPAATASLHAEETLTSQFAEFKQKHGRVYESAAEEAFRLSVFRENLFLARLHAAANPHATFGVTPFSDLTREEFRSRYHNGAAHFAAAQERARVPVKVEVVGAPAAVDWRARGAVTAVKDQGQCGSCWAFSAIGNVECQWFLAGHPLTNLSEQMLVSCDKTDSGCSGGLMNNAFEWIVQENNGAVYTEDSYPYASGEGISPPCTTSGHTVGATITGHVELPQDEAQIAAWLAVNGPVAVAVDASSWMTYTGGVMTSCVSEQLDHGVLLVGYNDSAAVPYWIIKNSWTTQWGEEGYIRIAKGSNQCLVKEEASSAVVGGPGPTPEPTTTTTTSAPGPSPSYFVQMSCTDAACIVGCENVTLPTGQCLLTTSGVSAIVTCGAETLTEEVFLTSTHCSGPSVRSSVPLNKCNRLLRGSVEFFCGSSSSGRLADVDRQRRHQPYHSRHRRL
Cathepsin B (Rattus norvegicus), sequence (P00787 80-333 limits assumed): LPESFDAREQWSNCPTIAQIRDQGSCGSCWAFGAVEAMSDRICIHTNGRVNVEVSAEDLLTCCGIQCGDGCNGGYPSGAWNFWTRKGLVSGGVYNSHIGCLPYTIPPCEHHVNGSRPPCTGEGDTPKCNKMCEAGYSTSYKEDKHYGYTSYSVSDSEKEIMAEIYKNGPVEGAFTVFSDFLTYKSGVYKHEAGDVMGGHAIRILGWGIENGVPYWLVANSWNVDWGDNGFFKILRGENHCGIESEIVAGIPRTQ

SMILES | IC50 (Trypanosoma cruzi [5]) | selectivity ratio [7] | CC50 at 96 h [8] | inhibition [12] | inhibition (Trypanosoma brucei [17]) | Activity (Trypanosoma cruzi [20]) | other results
CC(C)C[C@H](NC(=O)[C@@H]1O[C@H]1C(=O)O)C(=O)NCCCCN=C(N)N | – | – | – | – | – | – | inhibition [1]: 100%; inhibition [2]: 100%; inhibition [3]: 99%; inhibition [4]: 100%
NCCNc1ccnc2cc(Cl)ccc12 | 77.5 µM | < 2.5 | < 194 µM | – | – | – | inhibition (Trypanosoma brucei [6]): 62%; inhibition [9]: 44%; IC50 [10]: 126 µM
Clc1ccc2c(NCCCN3CCOCC3)ccnc2c1 | 67.7 µM | 1.8 | 123 µM | 88% | 51% | – | inhibition [11]: 6%; inhibition [13]: 10%; Ki (Cruzipain [14]): 12.1 µM; inhibition [15]: 8%; inhibition [16]: 13%; IC50 (Cruzipain [18]): 15 µM
O=C(Cn1ccnc1[N+](=O)[O-])NCc1ccccc1 [BENZNIDAZOLE] | 3.8 µM | – | – | – | – | – | –
Clc1ccc2c(NCc3ccccc3)ccnc2c1 | 37.2 µM | 1.2 | 46.5 µM | 65% | 71% | – | inhibition [11]: 2%; IC50 [19]: 34.2 µM; inhibition [13]: 12%; inhibition [15]: 9%; inhibition [16]: 17%; IC50 (Cruzipain [18]): 44 µM
c1ccc2[nH]c(CNCCCN3CCOCC3)cc2c1 | – | – | – | 4% | 7% | inactive | –
CN1CCN(CC(=O)Nc2ccc(Cl)cc2)CC1 | – | – | – | 28.5% | 22.6% | inactive | –
Clc1ccc2[nH]c(CNCc3ccccc3)cc2c1 | 25 µM | 1.2 | 31 µM | 4% | 5% | – | –
Clc1ccc2[nH]c3c(NCCCN4CCOCC4)ncnc3c2c1 | – | – | – | – | – | – | IC50 (Cruzipain [18]): 15 µM
CN1CCN(c2ccncn2)CC1 | – | – | – | 5% | 13% | inactive | –
O=C(CN1CCc2ccccc2C1)Nc1ccccc1 | 245 µM | 1.5 | 375 µM | 7.7% | 19.1% | – | –
CCCNc1ccnc2cc(Cl)ccc12 | 125 µM | 2.3 | 283 µM | 53% | 49% | – | –
Cc1ccc(NC(=O)CN2CCc3ccccc3C2)cc1 | 83.3 µM | 1.5 | 125 µM | 15.3% | 16.7% | – | –
O=C(CNCCCN1CCOCC1)Nc1ccc(Cl)cc1 | – | – | – | 16.5% | 21% | inactive | –
Cc1ccc(NC(=O)CN2CCN(C)CC2)cc1 | – | – | – | 0% | 15.5% | inactive | –
O=C(CNCCCN1CCOCC1)Nc1ccccc1 | – | – | – | 2.9% | 7.4% | inactive | –
CN1CCN(Cc2ccc[nH]2)CC1 | – | – | – | 10.9% | 32.1% | inactive | –
Cc1ccc(NC(=O)CNCCCN2CCOCC2)cc1 | – | – | – | 3.5% | 13.1% | inactive | –
c1c[nH]c(CN2CCOCC2)c1 | – | – | – | 23.6% | 66.7% | inactive | IC50 [19]: 55 µM

SMILES | IC50 (Trypanosoma cruzi [5]) | selectivity ratio [7] | CC50 at 96 h [8] | inhibition [12] | inhibition (Trypanosoma brucei [17]) | Activity (Trypanosoma cruzi [20]) | other results
c1ccc(CNCc2cc3ccccc3[nH]2)cc1 | – | – | – | 9% | 8% | inactive | –
c1cc(NCCCN2CCOCC2)ncn1 | – | – | – | 1% | 5% | inactive | –
O=C(CN1CCc2ccccc2C1)Nc1ccc(Cl)cc1 | 64.2 µM | < 1.9 | < 125 µM | 18.2% | 20.5% | – | –
Clc1ccc2c(NCCN3CCOCC3)ccnc2c1 | – | – | – | 56% | 61% | inactive | IC50 [19]: 61 µM; IC50 (Cruzipain [18]): 41 µM
c1ccc2c(c1)CCN(c1ccncn1)C2 | 3.1 µM | 128 | 400 µM | 15% | 20% | – | –
NCCCNc1ccnc2cc(Cl)ccc12 | – | – | – | – | – | inactive | inhibition (Trypanosoma brucei [6]): 53%; inhibition [9]: 39%
OCCN1CCN(c2ccnc3cc(Cl)ccc23)CC1 | – | – | – | – | – | inactive | inhibition (Trypanosoma brucei [6]): 53%; inhibition [9]: 42.6%
Clc1ccc2c(NCCCN3CCCCC3)ccnc2c1 | 38.2 µM | 1.6 | 61.5 µM | 53% | 61% | – | –
O=C(CNc1ccnc2cc(Cl)ccc12)N1CCOCC1 | – | – | – | 55% | 61% | inactive | IC50 [19]: 48 µM
c1c[nH]c(CN2CCc3ccccc3C2)c1 | – | – | – | 3.2% | 49.1% | inactive | –
Clc1ccc2[nH]c(CNCCCN3CCOCC3)cc2c1 | 38.9 µM | 1.9 | 75 µM | 15% | 1% | – | –
OCCCNc1ccnc2cc(Cl)ccc12 | – | – | – | 67% | 63% | inactive | inhibition [11]: 8%; IC50 [19]: 72 µM; inhibition [13]: 4%; inhibition [15]: 5%; inhibition [16]: 14%; IC50 (Cruzipain [18]): 28 µM
Clc1ccc2[nH]c(CNC3CCCCC3)cc2c1 | 10.7 µM | 1.2 | 12.5 µM | 8% | 4% | – | –
OCCNc1ccnc2cc(Cl)ccc12 | – | – | – | 60% | 61% | inactive | IC50 [19]: 58 µM; IC50 (Cruzipain [18]): 62 µM
c1ccc2[nH]c(CNC3CCCCC3)cc2c1 | – | – | – | 6% | 8% | inactive | –
c1c[nH]c(CNCCCN2CCOCC2)c1 | – | – | – | 0% | 15.1% | inactive | –
Clc1ccc2c(NCCN3CCCCC3)ccnc2c1 | 57.6 µM | 1.1 | 64.5 µM | 43% | 56% | – | –
CN1CCN(CC(=O)Nc2ccccc2)CC1 | – | – | – | 38.6% | 7.4% | inactive | –
